Reference: article PMC10600239, “Selective MCL-1 inhibitor ABBV-467 is efficacious in tumor models but is associated with cardiac troponin increases in patients” (Communications Medicine, 2023)

What was measured:
[1] = Anesthetized dog cardiovascular safety pharmacology; format: in vivo; conditions: anesthetized beagle, IV 1, 3 and 10 mg/kg
Source text: ABBV-467 was profiled in safety pharmacology studies in anesthetized (non-Good Laboratory Practice [GLP]) and telemetry-instrumented conscious (GLP) dog cardiovascular assays (Supplementary Table S6).
Supplementary Table S6: Maj or findings in safety pharmac ology cardiovascular studies c onduc ted with ABBV- […]
Species/Strain Route of Concentrations Sex and N Results
Administration or Doses per Group […]
Anesthetized IV 1, 3, and Male No effects up to a plasma concentration dog 10 m g/ k gN=4 o f 16 .83 µg/mL on […]
aged 8-12 months • Heart rate
• Systemic vascular resistance
At 67 .23 mg/m L, an increase in heart rate and decrease in systemic vascular
Conscious IV 0, 0.3, 1, and Male No effects on blood pressure, heart dog 3 mg/kg N=5–6a rate, or ECG parameters at any dose beagle (plasma concentration of 6.53 µg/mL at (aged 8-12 months 3-m g/ k g do s e )
ECG, electrocardiogram; IC50, half maximal inhibitory concentration; IV, intravenous; QTcV, QT interval correct ed accor ding to the Van de Water formula. No animals or data were excl uded from analysis . […] Healthy dogs, as determined by veterinary physical examination and clinical pathology, were selected for study based on availability without explicit randomization. […] Power analysis has shown a group size of 6 can statistically detect an approximately 20 % alteration in measured parameters w ith α =0.0 5. […]

[2] = target: off-target receptors, ion channels, and transporters (Homo sapiens, UniProt P51812); experiment: Off-target profiling (Supplementary Data 1); conditions: TR-FRET Kinome; Invitrogen A-1169612.6 .0015(Subs Conc)
[3] = target: off-target receptors, ion channels, and transporters (Homo sapiens, UniProt P29376); experiment: Off-target profiling (Supplementary Data 1); conditions: TR-FRET Kinome; Invitrogen A-1224615.7 .0125(Subs Conc)
[4] = target: off-target receptors, ion channels, and transporters (Homo sapiens, UniProt P17948); experiment: Off-target profiling (Supplementary Data 1); conditions: TR-FRET Kinome; Invitrogen A-1167389.7 .0125(Subs Conc)
[5] = target: off-target receptors, ion channels, and transporters (Homo sapiens, UniProt O95819); experiment: Off-target profiling (Supplementary Data 1); conditions: TR-FRET Kinome; Invitrogen A-1180691.2 .1(Subs Conc)
[6] = target: off-target receptors, ion channels, and transporters (Homo sapiens, UniProt P46734); experiment: Off-target profiling (Supplementary Data 1); conditions: TR-FRET Kinome; Invitrogen A-1224615.7 .2(Subs Conc)
[7] = target: off-target receptors, ion channels, and transporters (Homo sapiens, UniProt P09619); experiment: Off-target profiling (Supplementary Data 1); conditions: TR-FRET Kinome; Invitrogen A-1169612.6 .025(Subs Conc)
[8] = target: off-target receptors, ion channels, and transporters (Homo sapiens, UniProt O14965); experiment: Off-target profiling (Supplementary Data 1); conditions: TR-FRET Kinome; Invitrogen A-1169612.6 .006(Subs Conc)
[9] = Phase 1 first-in-human study (NCT04178902): efficacy (IMWG criteria, immunoglobulin, free light chain); format: in vivo; conditions: for Kappa Lt Chain,Free/Lambda Lt Chain,Free / Immunoglobulin G: patient; for Kappa Lt Chain,Free/Lambda Lt Chain,Free: normal range 0.22-1.52; for Immunoglobulin G: normal range 5.65-17.65
Source text: This FIH study (NCT04178902) for ABBV-467 was a multicenter, open-label, dose-escalation study enrolling patients aged ≥18 years who had R/R MM, with the option to enroll R/R AML once recommended phase 2 dose (RP2D) was established. The study design was originally planned to consist of 2 parts: dose escalation and dose expansion, including a minimum of 6 patients treated during dose escalation at what was ultimately to be declared the RP2D. Patients must have received 3 or more prior lines of therapy including at least 1 or more immunomodulatory agents, 1 or more proteasome inhibitors, and 1 or more anti-CD38 monoclonal antibodies. Other eligibility criteria included: Eastern Cooperative Oncology Group performance status ≤2, measurable disease as defined by International Myeloma Working Group (IMWG) consensus criteria, an echocardiogram with an ejection fraction ≥50%, and adequate hematologic, hepatic, and renal function. The prespecified primary objectives were to characterize the safety and toxicity profiles, to establish the RP2D, and to determine the pharmacokinetic (PK) profile of ABBV-467 monotherapy. Safety evaluations included, but were not limited to, adverse event (AE) monitoring, physical examinations, vital sign measurements, electrocardiogram (ECG), cardiac enzyme monitoring, and clinical laboratory testing (hematology and chemistry) as a measure of safety and tolerability for the entire study duration. Parameters used to determine PK included maximum observed plasma concentration (Cmax), terminal elimination half-life (t1/2), area under the plasma concentration-time curve (AUC) from time 0 to time of last measurable concentration (AUCt), AUC from time 0 to infinity (AUC0-∞), and clearance using non-compartmental methods. Secondary objectives were preliminary evaluation of the efficacy of ABBV-467 in R/R MM and R/R AML. Preliminary efficacy endpoints were overall response rate (ORR), clinical benefit rate (CBR), and duration of response (DOR) as evaluated per adapted IMWG[36] criteria for MM and per adapted International Working Group (IWG)[37] and European Leukemia Net (ELN)[38] criteria for AML.

Chain of off-target receptors, ion channels, and transporters (Homo sapiens, UniProt P17948) (P17948 27-1338): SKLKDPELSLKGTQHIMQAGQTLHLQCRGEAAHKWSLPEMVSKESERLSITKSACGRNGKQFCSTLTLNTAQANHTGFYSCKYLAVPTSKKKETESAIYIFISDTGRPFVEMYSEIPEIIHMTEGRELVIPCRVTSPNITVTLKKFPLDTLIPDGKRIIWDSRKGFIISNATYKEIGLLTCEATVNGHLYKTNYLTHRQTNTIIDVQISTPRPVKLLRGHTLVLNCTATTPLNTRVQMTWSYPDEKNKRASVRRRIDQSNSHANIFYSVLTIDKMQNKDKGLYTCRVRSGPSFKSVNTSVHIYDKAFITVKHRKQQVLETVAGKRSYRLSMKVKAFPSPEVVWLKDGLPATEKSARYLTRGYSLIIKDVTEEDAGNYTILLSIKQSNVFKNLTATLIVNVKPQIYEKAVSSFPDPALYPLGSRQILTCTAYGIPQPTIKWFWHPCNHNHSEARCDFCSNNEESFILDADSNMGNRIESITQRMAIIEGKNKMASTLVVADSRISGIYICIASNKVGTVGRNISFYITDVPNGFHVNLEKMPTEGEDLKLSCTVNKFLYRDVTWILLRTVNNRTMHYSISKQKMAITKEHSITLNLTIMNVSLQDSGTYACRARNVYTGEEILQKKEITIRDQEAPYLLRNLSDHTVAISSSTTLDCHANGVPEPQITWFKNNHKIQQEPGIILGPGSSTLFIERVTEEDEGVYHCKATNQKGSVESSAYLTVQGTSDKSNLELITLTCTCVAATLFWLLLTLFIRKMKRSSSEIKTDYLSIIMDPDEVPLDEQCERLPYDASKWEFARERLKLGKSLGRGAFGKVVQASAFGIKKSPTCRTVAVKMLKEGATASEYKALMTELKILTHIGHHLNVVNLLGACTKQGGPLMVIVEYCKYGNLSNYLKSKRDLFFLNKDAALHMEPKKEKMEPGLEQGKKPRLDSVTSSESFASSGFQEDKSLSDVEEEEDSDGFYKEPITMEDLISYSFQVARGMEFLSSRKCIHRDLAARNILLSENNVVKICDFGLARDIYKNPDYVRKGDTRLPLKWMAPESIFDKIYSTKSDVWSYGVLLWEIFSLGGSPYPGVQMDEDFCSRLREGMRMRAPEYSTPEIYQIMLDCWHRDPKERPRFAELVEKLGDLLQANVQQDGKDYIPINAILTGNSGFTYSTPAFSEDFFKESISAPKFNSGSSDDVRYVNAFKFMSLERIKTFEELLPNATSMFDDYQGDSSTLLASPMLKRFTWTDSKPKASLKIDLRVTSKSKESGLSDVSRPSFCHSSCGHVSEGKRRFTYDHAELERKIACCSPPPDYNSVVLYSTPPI
Chain of off-target receptors, ion channels, and transporters (Homo sapiens, UniProt P51812) (P51812 whole entry): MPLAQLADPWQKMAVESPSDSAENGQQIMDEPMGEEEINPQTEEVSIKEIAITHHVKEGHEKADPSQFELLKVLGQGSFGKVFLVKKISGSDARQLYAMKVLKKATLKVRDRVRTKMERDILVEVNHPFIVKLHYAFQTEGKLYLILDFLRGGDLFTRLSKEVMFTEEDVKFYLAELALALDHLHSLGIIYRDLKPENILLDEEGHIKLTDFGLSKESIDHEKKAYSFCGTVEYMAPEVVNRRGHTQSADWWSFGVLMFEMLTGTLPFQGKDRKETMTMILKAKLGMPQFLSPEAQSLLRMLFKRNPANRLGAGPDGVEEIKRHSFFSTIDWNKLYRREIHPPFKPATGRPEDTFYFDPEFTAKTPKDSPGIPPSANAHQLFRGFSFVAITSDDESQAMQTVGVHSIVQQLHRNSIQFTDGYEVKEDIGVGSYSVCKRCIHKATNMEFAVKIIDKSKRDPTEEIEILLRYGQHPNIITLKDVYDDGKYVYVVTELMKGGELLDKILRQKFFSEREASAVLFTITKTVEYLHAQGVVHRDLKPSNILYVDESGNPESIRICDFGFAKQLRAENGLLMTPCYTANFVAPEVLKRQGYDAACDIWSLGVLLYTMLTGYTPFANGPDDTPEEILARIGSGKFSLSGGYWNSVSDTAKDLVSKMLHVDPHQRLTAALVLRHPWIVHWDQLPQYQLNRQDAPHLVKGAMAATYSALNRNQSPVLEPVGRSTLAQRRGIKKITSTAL
Chain of off-target receptors, ion channels, and transporters (Homo sapiens, UniProt P09619) (P09619 33-1106): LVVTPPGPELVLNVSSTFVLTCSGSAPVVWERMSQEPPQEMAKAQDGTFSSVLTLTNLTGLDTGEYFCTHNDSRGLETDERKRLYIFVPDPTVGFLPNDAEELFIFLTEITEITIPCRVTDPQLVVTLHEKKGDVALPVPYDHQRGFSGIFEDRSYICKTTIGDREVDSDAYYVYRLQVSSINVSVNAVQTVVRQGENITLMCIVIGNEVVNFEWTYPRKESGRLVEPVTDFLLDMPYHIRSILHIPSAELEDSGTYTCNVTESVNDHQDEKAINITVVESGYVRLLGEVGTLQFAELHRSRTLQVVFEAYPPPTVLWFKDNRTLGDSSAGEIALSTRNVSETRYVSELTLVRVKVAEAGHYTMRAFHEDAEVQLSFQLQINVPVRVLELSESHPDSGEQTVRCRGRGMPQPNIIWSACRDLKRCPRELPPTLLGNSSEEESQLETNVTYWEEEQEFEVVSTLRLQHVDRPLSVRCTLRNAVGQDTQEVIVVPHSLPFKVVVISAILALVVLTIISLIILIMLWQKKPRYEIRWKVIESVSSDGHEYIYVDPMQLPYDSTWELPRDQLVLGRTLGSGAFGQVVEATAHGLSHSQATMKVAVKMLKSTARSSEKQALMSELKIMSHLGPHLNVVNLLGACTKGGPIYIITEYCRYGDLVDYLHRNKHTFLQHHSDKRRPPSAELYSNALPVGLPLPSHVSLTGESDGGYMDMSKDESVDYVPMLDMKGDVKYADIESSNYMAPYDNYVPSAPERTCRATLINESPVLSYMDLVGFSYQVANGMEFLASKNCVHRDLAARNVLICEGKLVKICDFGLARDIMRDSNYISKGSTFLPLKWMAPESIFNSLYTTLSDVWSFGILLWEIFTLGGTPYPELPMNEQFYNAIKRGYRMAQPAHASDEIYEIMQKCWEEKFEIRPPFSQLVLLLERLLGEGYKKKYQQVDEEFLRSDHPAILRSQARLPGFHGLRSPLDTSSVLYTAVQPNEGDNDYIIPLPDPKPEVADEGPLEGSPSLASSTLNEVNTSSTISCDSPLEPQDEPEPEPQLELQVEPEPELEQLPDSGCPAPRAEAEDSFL
Chain of off-target receptors, ion channels, and transporters (Homo sapiens, UniProt P46734) (P46734 whole entry): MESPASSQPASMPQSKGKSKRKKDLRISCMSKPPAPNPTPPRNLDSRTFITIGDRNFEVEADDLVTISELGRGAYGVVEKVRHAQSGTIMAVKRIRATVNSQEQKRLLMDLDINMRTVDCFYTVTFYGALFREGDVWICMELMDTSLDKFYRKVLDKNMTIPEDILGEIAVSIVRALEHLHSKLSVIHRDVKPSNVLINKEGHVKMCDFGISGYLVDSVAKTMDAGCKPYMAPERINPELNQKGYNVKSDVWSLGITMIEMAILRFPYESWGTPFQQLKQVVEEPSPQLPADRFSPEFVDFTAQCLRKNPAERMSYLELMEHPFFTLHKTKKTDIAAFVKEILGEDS
Chain of off-target receptors, ion channels, and transporters (Homo sapiens, UniProt O95819) (O95819 whole entry): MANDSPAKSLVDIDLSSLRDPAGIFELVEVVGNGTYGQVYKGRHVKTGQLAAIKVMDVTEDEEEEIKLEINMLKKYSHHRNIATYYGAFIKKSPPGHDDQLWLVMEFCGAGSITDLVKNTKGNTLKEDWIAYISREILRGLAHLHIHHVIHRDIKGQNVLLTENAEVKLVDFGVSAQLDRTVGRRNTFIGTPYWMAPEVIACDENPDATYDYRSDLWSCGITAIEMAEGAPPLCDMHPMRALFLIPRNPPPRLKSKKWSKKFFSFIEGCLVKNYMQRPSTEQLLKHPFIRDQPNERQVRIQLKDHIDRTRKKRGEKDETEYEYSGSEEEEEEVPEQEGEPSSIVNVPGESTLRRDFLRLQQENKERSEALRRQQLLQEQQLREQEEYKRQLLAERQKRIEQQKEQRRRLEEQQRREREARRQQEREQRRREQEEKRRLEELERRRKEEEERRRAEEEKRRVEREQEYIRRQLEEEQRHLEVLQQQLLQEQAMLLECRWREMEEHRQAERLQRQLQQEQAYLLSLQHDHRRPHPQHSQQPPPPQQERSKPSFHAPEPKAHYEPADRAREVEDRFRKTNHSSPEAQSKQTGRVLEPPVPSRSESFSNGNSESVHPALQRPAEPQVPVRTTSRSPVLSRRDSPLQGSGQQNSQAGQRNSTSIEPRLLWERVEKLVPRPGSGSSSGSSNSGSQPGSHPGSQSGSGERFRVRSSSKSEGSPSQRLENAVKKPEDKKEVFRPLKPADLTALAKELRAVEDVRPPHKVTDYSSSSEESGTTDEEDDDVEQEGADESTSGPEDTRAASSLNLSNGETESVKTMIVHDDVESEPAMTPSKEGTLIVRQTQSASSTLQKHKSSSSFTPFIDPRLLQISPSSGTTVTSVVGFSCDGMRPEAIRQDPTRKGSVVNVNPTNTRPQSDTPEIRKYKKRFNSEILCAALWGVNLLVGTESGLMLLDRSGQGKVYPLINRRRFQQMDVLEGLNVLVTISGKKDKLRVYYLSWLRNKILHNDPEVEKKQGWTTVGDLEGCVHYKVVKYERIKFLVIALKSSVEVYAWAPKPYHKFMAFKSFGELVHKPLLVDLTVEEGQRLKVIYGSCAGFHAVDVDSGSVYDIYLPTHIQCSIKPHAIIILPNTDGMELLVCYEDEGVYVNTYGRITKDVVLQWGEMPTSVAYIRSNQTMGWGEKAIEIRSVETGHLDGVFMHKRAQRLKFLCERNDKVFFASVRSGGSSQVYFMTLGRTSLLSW

Question: With `Cc1c(Cl)c2c(Cl)c(C)c1-c1c(-c3ccc(F)cc3)sc3ncnc(c13)O[C@@H](C(=O)O)Cc1cc(ccc1OCc1ccnc(-c3ccc(OC[C@H]4COCCO4)cc3)n1)OC[C@@H](CN1CCN(C)CC1)O2` [ABBV-467] as the compound, how does the “plasma concentration up to which no effects on blood pressure, heart rate, contractility, systemic vascular resistance, cardiac output, QTcV, QRS, PR interval” value [1] read?
Answer: 16 .83 µg/mL

Question: And the Rsk2 - IC50 [2]?
Answer: > 10 µM

Question: What about the LTK - IC50 [3] of the same compound?
Answer: > 10 µM

Question: What about the Flt1 - IC50 [4] of the same compound?
Answer: > 10 µM

Question: What about the MAP4K4 - IC50 [5] of the same compound?
Answer: > 10 µM

Question: What about the MAP2K3 - IC50 [6] of the same compound?
Answer: > 10 µM

Question: What about the PDGFRB - IC50 [7] of the same compound?
Answer: > 10 µM

Question: What about the Aurora2 - IC50 [8] of the same compound?
Answer: > 10 µM

Question: What about the “duration of stable disease” value ([9]; 1 patient, […] dose level) of the same compound?
Answer: approximately 8 months

Question: What about the “objective responses” value ([9]; 8 patients with R/R MM) of the same compound?
Answer: No objective responses

Question: What about the “Kappa Lt Chain,Free/Lambda Lt Chain,Free” value ([9]; LBDY 1) of the same compound?
Answer: 31.35 RATIO

Question: What about the “Immunoglobulin G” value ([9]; LBDY 1) of the same compound?
Answer: 28.1 g/L

Question: And the “Kappa Lt Chain,Free/Lambda Lt Chain,Free” value ([9]; LBDY 29)?
Answer: 25.56 RATIO

Question: What about the “Immunoglobulin G” value ([9]; LBDY 29) of the same compound?
Answer: 26.9 g/L

Question: And the “Kappa Lt Chain,Free/Lambda Lt Chain,Free” value ([9]; LBDY 57)?
Answer: 23.38 RATIO

Question: And the “Immunoglobulin G” value ([9]; LBDY 57)?
Answer: 23.3 g/L

Question: What about the “Kappa Lt Chain,Free/Lambda Lt Chain,Free” value ([9]; LBDY 85) of the same compound?
Answer: 6.92 RATIO

Question: And the “Immunoglobulin G” value ([9]; LBDY 85)?
Answer: 28.9 g/L

Question: And the “Kappa Lt Chain,Free/Lambda Lt Chain,Free” value ([9]; LBDY 115)?
Answer: 6.82 RATIO

Question: And the “Immunoglobulin G” value ([9]; LBDY 115)?
Answer: 30.6 g/L

Question: And the “Kappa Lt Chain,Free/Lambda Lt Chain,Free” value ([9]; LBDY 143)?
Answer: 7.51 RATIO

Question: What about the “Immunoglobulin G” value ([9]; LBDY 143) of the same compound?
Answer: 29.6 g/L

Question: And the “Kappa Lt Chain,Free/Lambda Lt Chain,Free” value ([9]; LBDY 171)?
Answer: 8.26 RATIO

Question: What about the “Immunoglobulin G” value ([9]; LBDY 171) of the same compound?
Answer: 24.4 g/L

Question: What about the “Kappa Lt Chain,Free/Lambda Lt Chain,Free” value ([9]; LBDY 199) of the same compound?
Answer: 3.99 RATIO

Question: And the “Immunoglobulin G” value ([9]; LBDY 199)?
Answer: 40.2 g/L

Question: And the “Kappa Lt Chain,Free/Lambda Lt Chain,Free” value ([9]; LBDY 227)?
Answer: 5.42 RATIO

Question: And the “Immunoglobulin G” value ([9]; LBDY 227)?
Answer: 29.5 g/L

Question: And the “Kappa Lt Chain,Free/Lambda Lt Chain,Free” value ([9]; LBDY 238)?
Answer: 8.01 RATIO

Question: What about the “Immunoglobulin G” value ([9]; LBDY 238) of the same compound?
Answer: 32.9 g/L

Question: What about the “Kappa Lt Chain,Free/Lambda Lt Chain,Free” value ([9]; LBDY -6) of the same compound?
Answer: 31.47 RATIO

Question: And the “Immunoglobulin G” value ([9]; LBDY -6)?
Answer: 23.8 g/L
